Each structure is given as a SMILES string.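 Five concentrations, 48 hours, 96-well plates. Definition used: TGI = concentration required for complete inhibition of growth.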

Test in all cases: inhibition of tumour cell growth, NCI panel, 48 h
The test system of assay [1] is COLO 205 colon.
Assay [2] relates to SK-MEL-5 melanoma.
Assay [3] relates to CAKI-1 renal.
Assay [4] deals with EKVX NSCLC.
The test system of assay [5] is A549 NSCLC.
Assay [6] concerns SK-OV-3 ovarian.
The test system of assay [7] is HOP-62 NSCLC.
Assay [8] deals with HCT-116 colon.
Assay [9] relates to RXF 393 renal.
In assay [10] the test system is MALME-3M melanoma.
In assay [11] the test system is MDA-MB-231 breast.
Assay [12] deals with NCI-H23 lung.
Assay [13] deals with UACC-257 melanoma.
Assay [14] concerns KM12 colon.
Assay [15] relates to MOLT-4 leukemia.
The subject of assay [16] is BT-549 breast.
Assay [17] deals with RPMI-8226 leukemia.
The subject of assay [18] is MDA-N.
Assay [19] deals with HOP-92 NSCLC.

Regarding `CC(=O)OCC1OC(SC2OC(COC(C)=O)C(OC(C)=O)C(OC(C)=O)C2OC(C)=O)C(OC(C)=O)C(OC(C)=O)C1OC(C)=O` (centres undefined), the TGI in assay [1], in assay [2], in assay [3], in assay [4], in assay [5] and in [6] was more than 100 µM throughout. Moreover, the TGI in [7], in assay [8], in assay [9], in assay [10], in [11] and in [12] was more than 100 µM throughout. Moreover, the TGI in [13], in assay [14], in assay [15], in assay [16], in assay [17] and in [18] was more than 100 µM each time.
`c1csc(-c2cc(-c3cccs3)c(-c3cccs3)s2)c1`: the TGI in [1], in [2], in [3], in [4], in [5] and in [6] was more than 100 µM in each case. The TGI in assay [7], in assay [8], in [9], in assay [10], in [11] and in assay [12] was more than 100 µM in each case. The TGI in [13], in assay [19], in [14], in assay [15], in [16] and in assay [18] was more than 100 µM each time.
Take `CCOC(=O)Cc1nc2sc(S(N)(=O)=O)nn2c1Br`: the TGI is more than 100 µM in assay [1]; 42.4 µM in [2]; 37.2 µM in assay [3]; 79.4 µM in assay [4]; more than 100 µM in [5]; more than 100 µM in assay [6]. The TGI in [7] was more than 100 µM; in assay [8] it was 96.5 µM; in assay [9], 69.8 µM; in [10], 81.7 µM; in assay [11] it was 44.6 µM; in assay [12], 81.5 µM. The TGI was more than 100 µM in assay [13]; 41.1 µM in [19]; more than 100 µM in assay [14]; 83.8 µM in assay [16]; 73.5 µM in assay [17]; more than 100 µM in [18].
On to `Cc1cc(C)c2c(n1)S(=O)(=O)N(CCCN1CCN(c3cccc(C(F)(F)F)c3)CC1)c1c-2nn(C)c1C`, for which the TGI in [1], in assay [2], in [3], in assay [4], in assay [5] and in assay [6] was more than 100 µM throughout. Besides, the TGI in assay [7], in assay [8], in assay [9], in [10], in assay [11] and in assay [12] was more than 100 µM throughout. For the same compound, the TGI in [13], in assay [19], in assay [14], in assay [15], in assay [16] and in [18] was more than 100 µM throughout.
`COc1ccc(C(SCCO)(c2ccccc2)c2ccccc2)cc1`: the TGI in [1] is 27.5 µM; in assay [2], 21.7 µM; in assay [3] it was 32.2 µM; in [4] it was 28.3 µM; in assay [5], 24.6 µM; in assay [6], 34.8 µM. In addition, the TGI in [7] was found to be 37.9 µM; in [8] it was 23.7 µM; in assay [9], 41 µM; in assay [10] it was 38.5 µM; in [11], 31 µM; in [12], 34 µM. The TGI is 32.7 µM in [13]; 25.4 µM in assay [19]; 37 µM in assay [14]; more than 100 µM in assay [15]; 32.4 µM in [16]; 26 µM in assay [18].
Regarding `C/C(=C/C(=O)Nn1c(Cc2ccccc2)n[nH]c1=O)C(=O)O`, the TGI in assay [1], in assay [2], in assay [3], in assay [4], in assay [5] and in assay [6] was more than 100 µM in each case. Further, the TGI in [7], in assay [8], in assay [9], in [10], in assay [11] and in assay [12] was more than 100 µM each time. Further, the TGI in assay [13], in assay [14], in [15], in assay [16], in assay [17] and in [18] was more than 100 µM in each case.
On to `CC(=O)O[C@@H]1C2=C(C)C=C(O2)[C@H]2O[C@]2(C)C[C@H]2C=C(C(=O)O2)[C@H](OC(C)=O)CC1[C@@]1(C)CO1` (some centres undefined), for which the TGI in assay [1] is 27.1 µM; in [2], more than 100 µM; in assay [3], 62.8 µM; in assay [4] it was 85 µM; in assay [5] it was more than 100 µM; in assay [6], more than 100 µM. Besides, the TGI in assay [7] was 57.9 µM; in assay [8] it was 28.4 µM; in assay [9] it was 36.8 µM; in assay [10], 58.4 µM; in assay [11], 78.8 µM; in [12], more than 100 µM. The TGI in [13] is more than 100 µM; in assay [14] it was more than 100 µM; in assay [15], 25.2 µM; in [16] it was 48.5 µM; in assay [17], 33.9 µM; in assay [18] it was more than 100 µM.
Take `Cc1ccc(-n2[nH]nc(C#N)c2=O)cc1`: the TGI in [1], in assay [2], in assay [3], in assay [4], in assay [5] and in assay [6] was more than 100 µM throughout. Besides, the TGI in assay [7], in [8], in assay [9], in [10], in [11] and in assay [12] was more than 100 µM in each case. Moreover, the TGI in [13], in [14], in [15], in assay [16], in assay [17] and in assay [18] was more than 100 µM in each case.
As to `CCOC(=O)c1ccc(C(=O)/C(C(C)=O)=C2\CCCN2C)n1C`, the TGI in assay [1], in assay [2], in [3], in assay [4], in assay [5] and in [6] was more than 100 µM in each case. Further, the TGI in assay [7], in [8], in assay [9], in [10], in assay [11] and in assay [12] was more than 100 µM throughout. Moreover, the TGI in assay [13], in assay [14], in assay [15], in assay [16], in assay [17] and in [18] was more than 100 µM each time.
In the case of `NC1CC2NC3CCCCC3NC2CC1N` (centres undefined), the TGI in assay [1] is more than 100 µM; in assay [2], 67.3 µM; in [3] it was more than 100 µM; in assay [4] it was more than 100 µM; in assay [5], more than 100 µM; in [6] it was more than 100 µM. The TGI is more than 100 µM in assay [8]; 94.5 µM in [9]; more than 100 µM in assay [10]; more than 100 µM in assay [11]; more than 100 µM in [12]; more than 100 µM in assay [13]. The TGI in assay [14] is more than 100 µM; in [15], 92.9 µM; in assay [16], more than 100 µM; in assay [17] it was more than 100 µM; in assay [18], more than 100 µM.
As for `COc1ccc(/C=C2\N=C(c3ccccc3)N(N=C3NC(=O)CC(=O)N3)C2=O)cc1`, the TGI in assay [1], in assay [2], in assay [3], in assay [5], in assay [6] and in assay [7] was more than 100 µM throughout. For the same compound, the TGI in [8], in assay [9], in assay [10], in assay [11], in assay [12] and in assay [13] was more than 100 µM throughout. The TGI in assay [19], in assay [14], in [15], in assay [16], in assay [17] and in assay [18] was more than 100 µM in each case.
Consider `Cn1/c(=N\S(=O)(=O)c2ccccc2)n(S(=O)(=O)c2ccccc2)c2ccccc21`, for which the TGI in [1], in assay [2], in assay [3], in assay [4], in assay [5] and in assay [6] was more than 100 µM throughout. Besides, the TGI in [7], in assay [8], in [9], in assay [10], in assay [11] and in assay [12] was more than 100 µM throughout. Besides, the TGI in [13], in [14], in assay [15], in assay [16], in [17] and in assay [18] was more than 100 µM throughout.
For `Cn1c(-c2ccccc2)cc2c3ccsc3c3ccsc3c21`, the TGI in assay [1], in assay [2], in [3], in [5], in assay [6] and in [7] was more than 100 µM each time. For the same compound, the TGI in assay [8], in assay [9], in [10], in assay [11], in [12] and in assay [13] was more than 100 µM throughout. In addition, the TGI in assay [19], in assay [14], in assay [15], in assay [16], in assay [17] and in assay [18] was more than 100 µM each time.
Take `COC1(OC)CC(CO)(CNc2cc(Cl)nc(N)n2)C1`: the TGI in assay [1], in [2], in [3], in assay [4], in [5] and in assay [6] was more than 100 µM in each case. The TGI in assay [7], in assay [8], in assay [9], in assay [10], in assay [11] and in assay [12] was more than 100 µM in each case. In addition, the TGI in assay [13], in assay [14], in [15], in assay [16], in [17] and in assay [18] was more than 100 µM each time.
In the case of `CC(C)[Si](OC1=CCC[C@H]2NC(=O)[C@@H](Cc3ccccc3)[C@@]12C)(C(C)C)C(C)C`, the TGI in assay [1] was determined as 6.35 µM; in assay [2], 9.58 µM; in assay [3], 14.6 µM; in [4] it was 15 µM; in assay [5], 12.6 µM; in assay [6] it was 18.9 µM. Also, the TGI was 24.2 µM in [7]; 14.1 µM in assay [8]; 15 µM in assay [9]; 34.3 µM in assay [10]; 26.5 µM in assay [11]; 18.9 µM in assay [12]. Also, the TGI in assay [13] is 16.3 µM; in assay [19] it was 6.67 µM; in [14], 14.4 µM; in [15] it was 14.7 µM; in assay [16] it was 24.1 µM; in [18], 14.2 µM.

The record behind these values is PubChem BioAssay (NCI).
